Measured values from patent publication US20140275049A1, “SUBSTITUTED PYRAZOLE ANALOGS As RAR ANTAGONISTS” (Eli Lilly and Company, priority 2011, published 2014).
pKi: −log10 of the molar value.

Key:
RARβ = target: T1, RARβ (Homo sapiens, UniProt P10826); assay: RARβ binding assay (SPA, 3H-TTNPB competition); conditions: RARβ/RXRα heterodimer
T1 construct: made in house; host or cells: baculovirus expression system
T1 sequence (P10826 1-455): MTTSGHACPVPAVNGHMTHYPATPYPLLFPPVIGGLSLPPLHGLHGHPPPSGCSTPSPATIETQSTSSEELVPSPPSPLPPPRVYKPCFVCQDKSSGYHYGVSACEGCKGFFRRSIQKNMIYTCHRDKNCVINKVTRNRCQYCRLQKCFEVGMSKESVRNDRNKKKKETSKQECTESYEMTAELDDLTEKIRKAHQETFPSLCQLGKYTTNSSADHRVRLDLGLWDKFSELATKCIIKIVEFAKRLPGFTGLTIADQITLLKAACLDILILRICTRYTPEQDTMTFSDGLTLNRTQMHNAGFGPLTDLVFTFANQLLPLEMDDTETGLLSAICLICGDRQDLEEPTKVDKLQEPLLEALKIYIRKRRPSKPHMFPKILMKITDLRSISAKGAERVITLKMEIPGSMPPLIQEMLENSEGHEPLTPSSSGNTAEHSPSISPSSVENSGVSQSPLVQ
T1 sequence (P19793 1-462 partner): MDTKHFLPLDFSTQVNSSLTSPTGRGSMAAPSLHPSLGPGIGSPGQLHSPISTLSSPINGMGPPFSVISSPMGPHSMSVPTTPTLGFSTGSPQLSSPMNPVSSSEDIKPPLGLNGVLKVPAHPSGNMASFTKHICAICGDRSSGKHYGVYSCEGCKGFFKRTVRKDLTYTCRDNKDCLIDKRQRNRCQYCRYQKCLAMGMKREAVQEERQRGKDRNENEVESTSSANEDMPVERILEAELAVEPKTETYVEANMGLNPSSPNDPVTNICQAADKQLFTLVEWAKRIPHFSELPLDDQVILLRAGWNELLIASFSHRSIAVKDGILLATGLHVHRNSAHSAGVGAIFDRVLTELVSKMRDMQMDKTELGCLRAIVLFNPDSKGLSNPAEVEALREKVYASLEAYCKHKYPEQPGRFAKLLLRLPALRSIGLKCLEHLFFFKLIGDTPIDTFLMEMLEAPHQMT
From the text: Compounds can be evaluated for binding to RARα, β and γ by measuring their ability to competitively bind to the RAR receptors when dimerized with the binding partner RXRα. Competitive binding assays may be carried out by Scintillation Proximity Assay (SPA) technology using the RARα, β or γ heterodimer (with RXRα as a partner with all the RARs) receptors prepared in a baculovirus expression system. Use the biotinylated oligonucleotide: 5′-[…]-3′ for binding of receptor to yttrium silicate streptavidin-coated SPA beads. Per well, preincubate […] with 82.7 μg SPA beads in a binding buffer containing 10 mM HEPES pH 7.8, 80 mM KCl, 0.5 mM MgCl2, 1 mM DTT, 0.5% CHAPS and 16.6 μg bovine serum albumin for 30 min at room temperature. Then spin the mixture at 2,000 rpm for 3 min to pelletize the beads-oligo mix. Remove the supernatant and resuspend the beads-oligo pellet in the same binding buffer as above, but which in addition now also contain 14% glycerol, 5 μg of sheared salmon sperm DNA, 0.5 μg of RARα, 1.0 μg of RARβ, or 0.25 μg of RARγ receptor, respectively. Carry out the binding assays in the presence of ˜11.3 μCi of ^3H 4-[(E)-2-(5,6,7,8-tetrahydro-5,5,8,8-tetramethyl-2-naphthalenyl)-1-propenyl]benzoic acid (TTNPB), and multiple concentrations of test compound ranging from (5 nM to 10 μM). Non-specific binding may be determined in the presence of 1 μM unlabeled TTNPB. Use the data to calculate an IC50 for compounds after fitting the dose-response curves to a 4-parameter logistic fit. Use the Cheng-Prusoff equation to convert IC50 (nM) values for compounds to Ki, and the Kd may be determined by saturation binding.

human RARγ LBD = target: T2, human RARγ LBD (Homo sapiens, UniProt P13631); assay: RARγ SRC-2 coactivator recruitment assay (agonist mode); format: biochemical; conditions: maximum stimulation relative to fitted top of TTNPB standard curve
T2 sequence (P13631 185-419 limits assumed): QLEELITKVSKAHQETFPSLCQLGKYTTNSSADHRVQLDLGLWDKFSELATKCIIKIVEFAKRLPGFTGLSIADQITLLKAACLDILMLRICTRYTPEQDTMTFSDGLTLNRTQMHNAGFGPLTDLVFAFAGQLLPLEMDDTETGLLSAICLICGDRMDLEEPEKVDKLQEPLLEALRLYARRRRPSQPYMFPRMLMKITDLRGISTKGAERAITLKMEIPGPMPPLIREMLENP
T2 sequence (P19793 227-458 partner limits assumed): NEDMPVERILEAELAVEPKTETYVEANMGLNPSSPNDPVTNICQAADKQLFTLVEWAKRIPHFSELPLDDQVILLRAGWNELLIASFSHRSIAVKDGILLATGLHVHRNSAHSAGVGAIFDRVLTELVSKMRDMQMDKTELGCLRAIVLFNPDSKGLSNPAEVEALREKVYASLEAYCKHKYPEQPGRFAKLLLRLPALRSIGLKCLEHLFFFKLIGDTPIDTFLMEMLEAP
From the text: The RARγ SRC-2 Coactivator recruitment assay utilizes the ligand binding domain (LBD) of RARγ with its binding partner RXRα to determine the ability of a compound to enhance the recruitment of the co-activator SRC-2 to the receptor complex. Enhanced recruitment of SRC2 is known to be reflective of an agonist confirmation of the RARγ receptor. The RARγ LBD and SRC2 peptides are covalently linked to AlphaScreen® beads such that enhanced protein-protein interactions can be assessed by energy transfer. Coactivator recruitment assays are performed using AlphaScreen® technology (Perkin Elmer USA) using a 6X-Histidine tagged human RARγ LBD and GST tagged hSRC-2 protein. Unlabelled RXRα LBD is added as a silent heterodimer partner. Nickel chelated donor beads are used to bind RARγ LBD and anti-GST acceptor beads are used to bind SRC-2. Serially diluted test compound is added in concentrations ranging from 10 μM to 500 pM to 20 nM human RARγ receptor, 25 nM RXRα LBD, and 5 nM SRC-2 protein in a buffer containing 25 mM HEPES (pH 7.5), 100 mM NaCl, 0.1% Bovine Serum Albumin (fraction V), and 2 mM DTT containing 16.67 μg/ml of nickel chelated donor beads and 16.67 μg/ml of anti GST acceptor beads in a final volume of 15 μl per well in a white 384 shallow well proxiplate. The RAR agonist, TTNPB, is used as a standard on each plate and is added in concentrations ranging from 100 nM to 5 pM. After incubating for 12 hours at room temperature, read the plate on a Perkin Elmer Envision using standard AlphaScreen® parameters for excitation and fluorescence. Use the data to calculate an EC50 for compounds after fitting the dose-response curves to a 4-parameter logistic fit. Calculate the percent stimulation using the fitted top of the TTNPB standard curve as a comparator.

| pKi (RARβ) | % Stimulation (human RARγ LBD) | SMILES |
| --- | --- | --- |
| 6.22 | 8.4% | CC(C)Sc1cc(-c2cc(-c3ccc(C(=O)O)cc3)nn2-c2ccc(C(=O)N(C)C)cc2)cc(C(C)(C)C)c1 [Example 12, 4-[5-(3-tert-Butyl-5-isopropylsulfanyl-phenyl)-1-[4-(dimethylcarbamoyl)phenyl]pyrazol-3-yl]benzoic Acid] |
| 5.85 | 0.6% | CC(C)(C)c1cc(-c2cc(-c3ccc(C(=O)O)cc3)nn2-c2ccc(C(=O)N3CCOCC3)cc2)cc(C(C)(C)C)n1 [Example 8, 4-[5-(2,6-Di-tert-butyl-4-pyridyl)-1-[4-(morpholine-4-carbonyl)phenyl]pyrazol-3-yl]benzoic acid] |
| < 5.74 | 0.2% | CN1CCN(C(=O)c2ccc(-n3nc(-c4ccc(C(=O)O)cc4)cc3-c3cc(C(C)(C)C)cc(C(C)(C)C)c3)cc2)CC1 [Example 1, 4-[5-(3,5-Di-tert-butylphenyl)-1-[4-(4-methylpiperazine-1-carbonyl)phenyl]pyrazol-3-yl]benzoic Acid] |
| 6.08 | −3% | CC(C)(C)c1cc(-c2cc(-c3ccc(C(=O)O)cc3)nn2-c2ccc(S(C)(=O)=O)cc2)cc(C(C)(C)C)c1 [Example 19, 4-[5-(3,5-Di-tert-butylphenyl)-1-(4-methylsulfonylphenyl)pyrazol-3-yl]benzoic Acid] |
